Source: paper PMC5986797, “Laminin heparin-binding peptides bind to several growth factors and enhance diabetic wound healing” (Nature Communications, 2018)
One block for each substance: values may come before it.

Columns and labels:
[1] = test system: recombinant human laminin isoforms (–111, –211, –332, –411, –421, –511, and –521); experiment: ELISA: binding of full-length laminin isoforms to absorbed GFs and CXCL chemokines; conditions: 50 nM GF coated, 10 nM laminin, n = 4; for binding to all tested laminin isoforms (ELISA, A450 nm): signals greater than 0.1 indicate binding; for binding to the other laminin isoforms (ELISA, A450 nm): isoforms other than laminin-332
Procedure: Ninety-six-well ELISA plates (med-binding, Greiner Bio-One) were coated with 50 nM GFs in 100 µL/well of phosphate-buffered saline (PBS) at 37 °C for more than 2 h. After blocking with 2% BSA solution containing PBS and 0.05% Tween 20 (PBS-T), 10 nM recombinant human laminin isoforms (–111, –211, –332, –411, –421, –511, and –521) (>95% purity tested by SDS-PAGE, BioLamina) in 100 µL/well PBS were added. Bound laminin was detected with 100 µL/well rabbit anti-human LAMC1 polyclonal antibody (Assay Biotech, Catalog No. C13072, 1:1000 dilution in PBS) or rabbit anti-human LAMA3 polyclonal antibody (Assay Biotech, Catalog No. C13066, 1:1000 dilution in PBS). After incubation with biotinylated anti-rabbit antibody for 60 min at room temperature (RT), HRP-conjugated streptavidin (Jackson ImmunoResearch) was added. After 60 min of incubation at RT, 50 μL of TMB substrate (Sigma-Aldrich) was added. The reactions were stopped by adding 25 μL of 2 N H2SO4. Subsequently, the absorbance at 450 nm was measured with a reference of 570 nm.

GF = experiment: ELISA: GF binding to laminin peptides, stated for the tested GFs together; set-up: species or system human; key: ++ indicates high affinities; + indicates medium/low affinities; conditions: summary table
Procedure: (§1) ELISA tests were performed as described above. In brief, ELISA plates were coated with 1 μg/mL of laminin alpha 3 LG domain recombinant protein, laminin alpha 4 LG domain recombinant protein (R&D Systems), laminin alpha 5 LG domain recombinant protein (LD BioPharma), or laminin peptide (sequences are described in Supplementary Table 1, chemically synthesized by Genscript) in PBS for 2 h at 37 °C. A concentration of 1 μg/mL of BSA served as non-binding protein control. After blocking with 2% BSA PBS-0.05% Tween 20 (PBS-T) solution, 1 μg/mL of the recombinant human proteins (VEGF-A121, VEGF-A165, PlGF-1, PlGF-2, PDGF-BB, or FGF-2) or 10 μg/mL of biotinylated heparin (Sigma-Aldrich) were added. Bound GF was detected with biotinylated antibodies for human VEGF-A, PlGF, PDGF-BB (R&D Systems, Catalog No. DY220, 1:180 dilution), or FGF-2 (R&D Systems). The antibodies were detected by streptavidin-HRP (R&D Systems).

VEGF-A165 = experiment: ELISA: VEGF-A165 binding to laminin LG domain / laminin peptide; set-up: species or system human; conditions: 10 µg/mL laminin peptide coated (legend; method 1 μg/mL); 1 μg/mL GF; vs BSA-coated wells; n = 4
Procedure: as §1, with “ELISA plates were coated with 1 μg/mL of laminin alpha 3 LG domain” left out

human lung fibroblasts = experiment: Cell adhesion assay, fibroblasts; format: cell-based; set-up: key to Cell adhesion Fibroblast: ++ indicates high affinities; + indicates medium/low affinities; conditions: for Cell adhesion Fibroblast: summary table; for fibroblast attachment on peptide-coated surfaces: without EDTA, 1 μg/mL peptide coated, 3000 cells/well, 30 min, 37 °C, FGM-2, 1% FBS, CyQUANT, vs BSA, n = 10
Procedure: (§2) A total of 96-well plates (non-tissue culture treated, Greiner Bio-One) were pre-coated with 1 μg/mL with laminin HBD peptides in PBS for 2 h at 37 °C, followed by blocking with 2% BSA PBS for 1 h at RT. Cell adhesion assays were performed using human lung fibroblasts (Lonza) in FGM-2 medium (Lonza) or human umbilical vein endothelial cells (HUVEC; Lonza) in EGM-2 medium (Lonza) supplemented with 1% fetal bovine serum (FBS) and 100 µg/mL VEGF-A165, with or without 5 mM EDTA (Sigma-Aldrich). Cells were plated at 3000 cells/well on laminin peptide pre-coated plates and incubated for 30 min at 37 °C, 5% CO2. Then, the medium was removed, and wells were quickly washed three times with PBS. Cell numbers were quantified using a CyQUANT assay, according to the manufacturer’s instructions (Invitrogen). All cell lines were checked for mycoplasma contamination and used in passages from 5 to 8.

[2] = ELISA: biotinylated heparin binding to laminin peptides; set-up: key to Interaction with Heparin: ++ indicates high affinities; + indicates medium/low affinities; conditions: for binding to heparin (ELISA): 10 µg/mL laminin peptide coated (legend; method 1 μg/mL), 10 µg/mL biotinylated heparin, vs BSA-coated wells, n = 4; for Interaction with Heparin: summary table
Procedure: as §1, with “ELISA plates were coated with 1 μg/mL of laminin alpha 3 LG domain” left out

[3] = test system: recombinant human syndecan-1, syndecan-2, syndecan-3, and syndecan-4; experiment: ELISA: syndecan binding to laminin peptides; set-up: key to Interaction with Syndecan: ++ indicates high affinities; + indicates medium/low affinities; conditions: for binding to syndecans 1–4 (ELISA): 10 µg/mL laminin peptide coated (legend; method 1 μg/mL), 1 μg/mL histidine-tagged syndecan, vs BSA-coated wells, n = 8; for Interaction with Syndecan: summary table
Procedure: ELISA tests were performed as described above. […] A concentration of 1 μg/mL of BSA served as non-binding protein control. After blocking with 2% BSA PBS-T solution, 1 μg/mL of the recombinant human syndecan-1, syndecan-2, syndecan-3, and syndecan-4 (all syndecan proteins are histidine-tagged; SinoBiological) were added. Bound GF was detected with anti-histidine tag antibody (BioLegend, Catalog No. 562504, 1:1000 dilution).

PDGF-BB = experiment: ELISA: PDGF-BB binding to laminin LG domain / laminin peptide; set-up: species or system human; conditions: 10 µg/mL laminin peptide coated (legend; method 1 μg/mL); 1 μg/mL GF; vs BSA-coated wells; n = 4
Procedure: as §1

[4] = test system: human umbilical vein endothelial cells (HUVEC); experiment: Cell adhesion assay, HUVEC; format: cell-based; set-up: key to Cell adhesion HUVEC: ++ indicates high affinities; + indicates medium/low affinities; conditions: for Cell adhesion HUVEC: summary table; for HUVEC attachment on peptide-coated surfaces: without EDTA, 1 μg/mL peptide coated, 3000 cells/well, 30 min, 37 °C, 100 ng/mL VEGF-A165, 1% FBS, CyQUANT, n = 10
Procedure: as §2, with “Cell adhesion assays were performed using human lung fibroblasts (Lonza) in FGM-2 medium (Lonza) or human umbilical vein endothelial cells (HUVEC; Lonza) in EGM-2 medium (Lonza) supplemented with 1% fetal bovine serum (FBS) and 100 µg/mL VEGF-A165, with or without 5 mM EDTA (Sigma-Aldrich).” left out

FGF-2 = experiment: ELISA: FGF-2 binding to laminin LG domain / laminin peptide; set-up: species or system human; conditions: 10 µg/mL laminin peptide coated (legend; method 1 μg/mL); 1 μg/mL GF; vs BSA-coated wells; n = 4
Procedure: as §1

PlGF-2 = experiment: ELISA: PlGF-2 binding to laminin LG domain / laminin peptide; set-up: species or system human; conditions: 10 µg/mL laminin peptide coated (legend; method 1 μg/mL); 1 μg/mL GF; vs BSA-coated wells; n = 4
Procedure: as §1

Substance: PDGF-BB: platelet-derived growth factor, PeproTech
binding to all tested laminin isoforms (ELISA, A450 nm) [1]: bound

Substance: BMP-4: bone morphogenetic protein, PeproTech
binding to all tested laminin isoforms (ELISA, A450 nm) [1]: not

Substance: IGF-1: insulin-like growth factor, PeproTech
binding to all tested laminin isoforms (ELISA, A450 nm) [1]: Neither IGF-1 nor IGF-2 displayed significant binding

Substance: HB-EGF: heparin-binding epidermal growth factor, PeproTech
binding to all tested laminin isoforms (ELISA, A450 nm) [1]: weakly bound

Substance: NT-3: neurotrophin, PeproTech
binding to all tested laminin isoforms (ELISA, A450 nm) [1]: strong binding

Substance: FGF-1: fibroblast growth factor, PeproTech
binding to all tested laminin isoforms (ELISA, A450 nm) [1]: did not

Substance: IGF-2: insulin-like growth factor, PeproTech
binding to all tested laminin isoforms (ELISA, A450 nm) [1]: Neither IGF-1 nor IGF-2 displayed significant binding

Substance: βNGF: β-nerve growth factor, PeproTech
binding to all tested laminin isoforms (ELISA, A450 nm) [1]: bound only weakly

Substance: CXCL-12γ: C–X–C motif ligand (CXCL)-12γ, R&D systems
binding to all tested laminin isoforms (ELISA, A450 nm) [1]: bound

Substance: TPGLGPRGLQATARKASRRSRQPARHPACML [LAMA5_3300–3330, chemically synthesized human laminin LAMA5 linker peptide, 31 aa]
Interaction with GF (GF): + | binding to VEGF-A165 (ELISA), peptides (VEGF-A165): preferentially bound | binding to PlGF-2 (ELISA), peptides (PlGF-2): preferentially bound | binding to heparin (ELISA) [2]: bound to heparin | Interaction with Heparin [2]: ++ | binding to syndecans 1–4 (ELISA) [3]: significant binding | Interaction with Syndecan [3]: ++

Substance: PPFLMLLKGSTRFNKTKTFR [LAMA3_2932–2951, chemically synthesized human laminin LAMA3 LG3–LG4 linker peptide, 20 aa]
binding to FGF-2 (ELISA), peptides (FGF-2): preferentially bound | Interaction with GF (GF): + | binding to VEGF-A165 (ELISA), peptides (VEGF-A165): preferentially bound | Cell adhesion Fibroblast (human lung fibroblasts): + | fibroblast attachment on peptide-coated surfaces (human lung fibroblasts): enhancement of fibroblast attachment | binding to heparin (ELISA) [2]: bound to heparin | Interaction with Heparin [2]: ++ | binding to syndecans 1–4 (ELISA) [3]: weak binding | Interaction with Syndecan [3]: + | Cell adhesion HUVEC [4]: + | HUVEC attachment on peptide-coated surfaces [4]: promoted HUVEC attachment

Substance: PDGF-AA: platelet-derived growth factor, PeproTech
binding to all tested laminin isoforms (ELISA, A450 nm) [1]: bound

Now from value to substance, other results behind:

Interaction with GF (GF): + | binding to VEGF-A165 (ELISA), peptides (VEGF-A165): bound | binding to heparin (ELISA) [2]: do not show heparin binding | binding to syndecans 1–4 (ELISA) [3]: weak binding | Interaction with Syndecan [3]: +
Substance: KNSFMALYLSKGR [LAMA3_3031–3043, chemically synthesized human laminin LAMA3 LG4 peptide, 13 aa]
Cell adhesion Fibroblast (human lung fibroblasts): + | fibroblast attachment on peptide-coated surfaces (human lung fibroblasts): enhancement of fibroblast attachment

binding to all tested laminin isoforms (ELISA, A450 nm) [1]: bound
Substance: FGF-2: fibroblast growth factor, PeproTech

Interaction with GF (GF): + | binding to heparin (ELISA) [2]: bound to heparin | Interaction with Heparin [2]: ++ | binding to PDGF-BB (ELISA), peptides (PDGF-BB): not statistically significant | binding to syndecans 1–4 (ELISA) [3]: significant binding | Interaction with Syndecan [3]: ++
Substance: TLFLAHGRLVYMFNVGHKKLKIR [LAMA4_1521–1543, chemically synthesized human laminin LAMA4 LG4 peptide, 23 aa]
Cell adhesion Fibroblast (human lung fibroblasts): + | fibroblast attachment on peptide-coated surfaces (human lung fibroblasts): enhancement of fibroblast attachment | Cell adhesion HUVEC [4]: + | HUVEC attachment on peptide-coated surfaces [4]: promoted HUVEC attachment

binding to the other laminin isoforms (ELISA, A450 nm) [1]: not to the other isoforms | binding to laminin-332 (ELISA, A450 nm) [1]: bound weakly
Substance: CXCL-11: CXCL chemokine, PeproTech

binding to all tested laminin isoforms (ELISA, A450 nm) [1]: bound
Substance: FGF-18: fibroblast growth factor, PeproTech

binding to FGF-2 (ELISA), peptides (FGF-2): bound | Interaction with GF (GF): ++ | binding to VEGF-A165 (ELISA), peptides (VEGF-A165): bound | binding to PlGF-2 (ELISA), peptides (PlGF-2): bound | binding to heparin (ELISA) [2]: bound to heparin | Interaction with Heparin [2]: ++ | binding to PDGF-BB (ELISA), peptides (PDGF-BB): bound | binding to syndecans 1–4 (ELISA) [3]: significant binding | Interaction with Syndecan [3]: ++
Substance: PLFLLHKKGKNLSKPKASQNKKGGKSK [LAMA4_1408–1434, chemically synthesized human laminin LAMA4 linker peptide, 27 aa]

binding to the other laminin isoforms (ELISA, A450 nm) [1]: not to the other isoforms | binding to laminin-332 (ELISA, A450 nm) [1]: bound weakly
Substance: CXCL-12α: CXCL chemokine, PeproTech
